Earlier results in US9180194B2, “Method and composition for transdermal drug delivery” (Acrux DDS Pty Ltd, priority 2005, dated 2015).

Settings: continuous trans-scrotal delivery

C[C@]12CC[C@H]3[C@@H](CCC4=CC(=O)CC[C@@]43C)[C@@H]1CC[C@@H]2O [testosterone]
levels of DHT and DHT/testosterone ratios relative to normal: 4 to 5 fold
